US9682991B2, “Tricyclic compounds for use as kinase inhibitors” (FUNDACIÓN CENTRO NACIONAL DE INVESTIGACIONES ONCOLOGICAS …, priority 2009, dated 2017)
Like-named read-outs stand apart in the source and are kept apart here.

Legend:
[1] = test system: HTC116 cells (colon carcinoma); experiment: MTT in vitro cell proliferation / combination assay, HTC116; type: cell-based; conditions: HTC116, chemotherapeutic alone; read-out: Chemoth EC50
Method: (§1) A combination index score is calculated by the Chou and Talalay method (CalcuSyn software, Biosoft). The strength of synergy is scored using the ranking system Chou and Talalay: CI less than 0.8 indicates synergy, CI between 0.8 and 1.2 indicates additivity and CI greater than 1.2 indicates antagonism.
(§2) The EC50 values of representative combinations were also calculated. The individually measured EC50 values of the chemotherapeutic agent and the example compounds are compared to the EC50 value of the combination. The cell lines are characterised by tumor type.

PIM-2 = PIM-2 (Homo sapiens (Human), UniProt Q9P1W9); experiment: PIM-2 biochemical assay (ADP Hunter); conditions: semi-quantitative; read-out: PIM2 IC50
Chain of PIM-2 (Q9P1W9 whole entry): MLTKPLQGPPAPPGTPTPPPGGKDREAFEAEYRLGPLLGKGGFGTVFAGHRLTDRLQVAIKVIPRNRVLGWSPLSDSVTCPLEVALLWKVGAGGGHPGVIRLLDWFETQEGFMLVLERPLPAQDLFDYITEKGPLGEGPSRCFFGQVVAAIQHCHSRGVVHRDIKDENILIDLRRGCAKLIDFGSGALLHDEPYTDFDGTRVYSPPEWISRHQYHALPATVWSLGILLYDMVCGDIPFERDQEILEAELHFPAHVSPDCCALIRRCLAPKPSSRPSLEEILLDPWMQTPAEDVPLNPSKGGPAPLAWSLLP
Text: The biochemical assay to measure PIM-2 activity relies on the ADP Hunter assay kit (DiscoveRx Corp., Cat. #90-0077), that determines the amount of ADP as direct product of the kinase enzyme activity.

PIM-3 = PIM-3 (Homo sapiens (Human), UniProt Q86V86); experiment: PIM-3 biochemical assay (ADP Hunter); conditions: semi-quantitative; read-out: PIM3 IC50
[2] = test system: Bad S112 phosphorylation in H1299 cells overexpressing Pim1 (H1299Pim1); experiment: Bad S112 phosphorylation inhibition assay (In Cell ELISA); type: cell-based; conditions: read-out: EC50 BadP ELISA H1299 Pim1
Method: Efficacy of compounds of the invention on the inhibition of Bad phosphorylation was measured by an In Cell ELISA. EC50 values were established for the tested compounds.
Cells: H1299 cells overexpressing Pim1 (H1299Pim1)
Cells were seeded in 15000 cells per 200 μl per well into 96-well plates and incubated for 16 h at 37° C., 5% CO2. On day two, nine serial 1:2 compound dilutions were made in DMSO in a 96-well plate. The compounds were added to duplicate wells in 96-well cell plates using a FX BECKMAN robot (Beckman Coulter) and incubated at 37° C. with CO2 atmosphere. After 4 hours, relative levels of Bad S112 phosphorylation were measured in Cell ELISA using SuperSignal ELISA Femto substrate (Pierce) and read on VICTOR (Perkin Elmer). EC50 values were calculated using ActivityBase from IDBS.

PIM-1 = PIM-1 (Homo sapiens (Human), UniProt P11309); experiment: PIM-1 biochemical assay (ADP Hunter)
Chain of PIM-1 (P11309 whole entry): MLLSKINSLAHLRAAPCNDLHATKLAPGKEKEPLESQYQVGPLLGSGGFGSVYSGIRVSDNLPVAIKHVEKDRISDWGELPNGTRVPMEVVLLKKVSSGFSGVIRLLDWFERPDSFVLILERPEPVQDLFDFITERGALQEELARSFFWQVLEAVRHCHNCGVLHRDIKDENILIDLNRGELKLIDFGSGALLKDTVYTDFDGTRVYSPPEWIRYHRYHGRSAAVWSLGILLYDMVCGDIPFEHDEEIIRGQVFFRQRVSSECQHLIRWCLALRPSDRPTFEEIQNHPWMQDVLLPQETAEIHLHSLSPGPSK

DU145 cells (prostate) = experiment: MTT in vitro cell proliferation / combination assay, DU145; type: cell-based; conditions: Homo sapiens, DU-145; DU145, chemotherapeutic alone; read-out: Chemoth EC50
Method: (§3) Proliferation assays (MTT) were performed as described in: • “Chemical interrogation of FOXO3a nuclear translocation identifies potent and selective inhibitors of phosphoinositide 3-kinases”, W. Link, J. Oyarzabal, B. G. Serelde, M. I. Albarran, O. Rabal, A. Cebria, P. Alfonso, J. Fominaya, O. Renner, S. Peregrina, D. Soilan, P. A. Ceballos, A. I. Hernandez, M. Lorenzo, P. Pevarello, T. G. Granda, G. Kurz, A. Carnero, J. R. Bischoff, J. Biol. Chem. 284 (2009) 28392-28400. Combination Assay
as §1, §2
(§4) Combination assays were performed as described in: • “Pim 1 kinase inhibitor ETP-45299 suppresses cellular proliferation and synergizes with PI3K inhibition”. Blanco-Aparicio, Carmen; Collazo, Ana Maria Garcia; Oyarzabal, Julen; Leal, Juan F.; Albaran, Maria Isabel; Lima, Francisco Ramos; Pequeno, Belen; Ajenjo, Nuria; Becerra, Mercedes; Alfonso, Patricia; Reymundo, Maria Isabel; Palacios, Irene; Mateos, Genoveva; Quinones, Helena; Corrionero, Ana; Carnero, Amancio; Pevarello, Paolo; Lopez, Ana Rodriguez; Fominaya, Jesus; Pastor, Joaquin; Bischoff, James R. Cancer Letters (Shannon, Ireland) 2011, 300(2), 145-153.

[3] = test system: MV4:11 cells (leukemia, AML); experiment: MTT in vitro cell proliferation / combination assay, MV4:11; type: cell-based; conditions: for EC50: Homo sapiens, MV4:11, example compound alone
Method: as §1
(§5) The EC50 values of representative combinations were also calculated. The individually measured EC50 values of the chemotherapeutic agent and the example compounds are compared to the EC50 value of the combination. The cell lines are characterised by tumor type. […]

[4] = test system: Mantle cell lymphoma cells; experiment: MTT in vitro cell proliferation / combination assay, mantle cell lymphoma (cell line not given); type: cell-based; conditions: Mantle cell lymphoma (cell line cell empty)
Method: as §3, §1, §2, §4

SKMel19 cells (melanoma) = experiment: MTT in vitro cell proliferation / combination assay, SKMel19; type: cell-based
Method: as §1, §5

[5] = Homo sapiens, NCI-H1299, semi-quantitative
[6] = read-out: PIM1 IC50, semi-quantitative
[7] = MV4:11, combination with GDC-0941
[8] = MV4:11, combination with GDC-0879
[9] = MV4:11, combination with PD-0332991
[10] = SKMel19, combination with GDC-0879
[11] = SKMel19, combination with PD-0332991

Row | SMILES | IC50 (PIM-2) [nM] | IC50 (PIM-3) [nM] | EC50 [2, 5] [nM] | IC50 (PIM-1; [6]) [nM] | also measured
1 | O=C(NOC[C@H](O)CO)c1ccc(F)c(F)c1Nc1ccc(I)cc1F [PD-0325901, (R)—N-(2,3-dihydroxypropoxy)-3,4-difluoro-2-(2-fluoro-4-iodophenylamino)benz-amide, reference compound] |  |  |  |  | EC50 [1]: 1250 nM
2 | CN1CCOc2c(N3CCC(CN)CC3)nn3c(-c4cccc(OC(F)(F)F)c4)nnc3c21 [Example 57, C-{1-[9-Methyl-3-(3-trifluoromethoxy-phenyl)-8,9-dihydro-7H-6-oxa-1,2,3a,4,9-pentaaza-cyclopenta[a]naphthalen-5-yl]-piperidin-4-yl}-methylamine] | > 1000 | > 1000 | 1000 to 10000 | < 100 | 
3 | CC(=O)O[C@@]12CO[C@@H]1C[C@H](O)[C@@]1(C)C(=O)[C@H](O)C3=C(C)[C@@H](OC(=O)[C@H](O)[C@@H](NC(=O)OC(C)(C)C)c4ccccc4)C[C@](O)([C@@H](OC(=O)c4ccccc4)[C@H]21)C3(C)C [Taxotere, (2R,3S)—N-carboxy-3-phenylisoserine, N-tert-butyl ester, 13-ester with 5,20-epoxy-1,2,4,7,10,13-hexahydroxytax-11-en-9-one 4-acetate 2-benzoate, trihydrate, reference compound] |  |  |  |  | EC50 (DU145 cells (prostate)): 25 nM
4 | CN1CCOc2c1c(N1CCC(N(C)C)CC1)nn1c(-c3cccc(OC(F)(F)F)c3)nnc21 [Example 5, Dimethyl-{1-[6-methyl-3-(3-trifluoromethoxy-phenyl)-7,8-dihydro-6H-9-oxa-1,2,3a,4,6-pentaaza-cyclopenta[a]naphthalen-5-yl]-piperidin-4-yl}-amine] | 100 to 1000 | 100 to 1000 | 250 to 1000 |  | IC50 (PIM-1): < 100 nM
5 | CN1CCC(CNc2nn3c(-c4cccc(OC(F)(F)F)c4)nnc3c3c2N(C)CCO3)CC1 [Example 16, (1-Methyl-piperidin-4-ylmethyl)-[6-methyl-3-(3-trifluoromethoxy-phenyl)-7,8-dihydro-6H-9-oxa-1,2,3a,4,6-pentaaza-cyclopenta[a]naphthalen-5-yl]-amine] |  |  |  | < 100 | EC50 [3]: 5000 nM; Combination Index (CI) [3, 7]: 0.585; Synergy [3, 7]: ++ (0.3<C1<0.7); Combination Index (CI) ([4]; combination with lapatinib): 0.289; Synergy ([4]; combination with lapatinib): +++ (0.1<CI<0.3); EC50 ([4]; example compound alone, read-out: Example EC50): 10000 nM
6 | CC1CN(C)c2c(NCC3CCN(C)CC3)nn3c(-c4cccc(OC(F)(F)F)c4)nnc3c2O1 (stereo not drawn) [Example 40, [6,8-Dimethyl-3-(3-trifluoromethoxy-phenyl)-7,8-dihydro-6H-9-oxa-1,2,3a,4,6-pentaaza-cyclopenta[a]naphthalen-5-yl]-(1-methyl-piperidin-4-ylmethyl)-amine] | 100 to 1000 | < 100 | 250 to 1000 | < 100 | 
7 | CN1CCC(Nc2nn3c(-c4cccc(OC(F)(F)F)c4)nnc3c3c2N(C)CCO3)CC1 [Example 2, (1-Methyl-piperidin-4-yl)-[6-methyl-3-(3-trifluoromethoxy-phenyl)-7,8-dihydro-6H-9-oxa-1,2,3a,4,6-pentaaza-cyclopenta[a]naphthalen-5-yl]-amine] | 100 to 1000 | 100 to 1000 | 250 to 1000 | < 100 | 
8 | CN1CCOc2c1c(NCC1CCNCC1)nn1c(-c3cccc(OC(F)(F)F)c3)nnc21 [Example 56, [6-Methyl-3-(3-trifluoromethoxy-phenyl)-7,8-dihydro-6H-9-oxa-1,2,3a,4,6-pentaaza-cyclopenta[a]naphthalen-5-yl]-piperidin-4-ylmethyl-amine] |  |  |  | < 100 | EC50 [3]: 500 nM; Combination Index (CI) [3, 8]: 0.604; Synergy [3, 8]: ++ (0.3<C1<0.7); Combination Index (CI) [3, 7]: 0.024; Synergy [3, 7]: ++++ (CI<0.1); Combination Index (CI) [3, 9]: 0.309; Synergy [3, 9]: ++ (0.3<C1<0.7); EC50 (SKMel19 cells (melanoma); Homo sapiens, SK-MEL19, SKMel19, example compound alone): 6000 nM; Combination Index (CI) (SKMel19 cells (melanoma); [10]): 0.516; Synergy (SKMel19 cells (melanoma); [10]): ++ (0.3<C1<0.7); Combination Index (CI) (SKMel19 cells (melanoma); [11]): 0.568; Synergy (SKMel19 cells (melanoma); [11]): ++ (0.3<C1<0.7)
9 | COc1ccc(-c2nnc3c4c(c(N5CCC(CN)CC5)nn23)N(C)CCO4)cc1 [Example 52, C-{1-[3-(4-Methoxy-phenyl)-6-methyl-7,8-dihydro-6H-9-oxa-1,2,3a,4,6-pentaaza-cyclopenta[a]naphthalen-5-yl]-piperidin-4-yl}-methylamine] | > 1000 | > 1000 |  | 100 to 1000 | EC50 ([2]; semi-quantitative): 1000 to 10000 nM
10 | CN1CCOc2c1c(NCC1CC1)nn1c(-c3cccc(OC(F)(F)F)c3)nnc21 [Example 7, Cyclopropylmethyl-[6-methyl-3-(3-trifluoromethoxy-phenyl)-7,8-dihydro-6H-9-oxa-1,2,3a,4,6-pentaaza-cyclopenta[a]naphthalen-5-yl]-amine] | 100 to 1000 | < 100 | 1000 to 10000 |  | IC50 (PIM-1): < 100 nM; IC50 (PIM-1; read-out: PIM1 IC50): 25.2 nM
11 | CNC1CCN(c2nn3c(-c4cccc(OC(F)(F)F)c4)nnc3c3c2N(C)CCO3)CC1 [Example 62, Methyl-{1-[6-methyl-3-(3-trifluoromethoxy-phenyl)-7,8-dihydro-6H-9-oxa-1,2,3a,4,6-pentaaza-cyclopenta[a]naphthalen-5-yl]-piperidin-4-yl}-amine] | 100 to 1000 | < 100 | < 250 | < 100 | 
12 | FC(F)(F)Oc1cccc(-c2nnc3c4c(c(N5CCCCC5)nn23)OCCO4)c1 [Example 101, 5-Piperidin-1-yl-3-(3-trifluoromethoxy-phenyl)-7,8-dihydro-6,9-dioxa-1,2,3a,4-tetraaza-cyclopenta[a]naphthalene] | 100 to 1000 | 100 to 1000 | 1000 to 10000 | < 100 | 
13 | CN1CCOc2c(N[C@H]3CC[C@H](O)CC3)nn3c(-c4cccc(OC(F)(F)F)c4)nnc3c21 [Example 20, 4-[9-Methyl-3-(3-trifluoromethoxy-phenyl)-8,9-dihydro-7H-6-oxa-1,2,3a,4,9-pentaaza-cyclopenta[a]naphthalen-5-ylamino]-cyclohexanol] | > 1000 | 100 to 1000 | 250 to 1000 |  | IC50 (PIM-1): 100 to 1000 nM
14 | CN1CCC(CNc2nn3c(-c4cccc(N(C)C)c4)nnc3c3c2N(C)CCO3)CC1 [Example 34, [3-(3-Dimethylamino-phenyl)-6-methyl-7,8-dihydro-6H-9-oxa-1,2,3a,4,6-pentaaza-cyclopenta[a]naphthalen-5-yl]-(1-methyl-piperidin-4-ylmethyl)-amine] | > 1000 | 100 to 1000 | 1000 to 10000 | < 100 | 
